These are literature values, as cited in PMC9782211 (Microorganisms, 2022).

The test system of this data set is hERG channels. The note with it: cited from earlier work. From the text:
Inhibition of the potassium current flowing through the cardiac hERG ion channel (Kv11.1) has been correlated to life threatening torsades de pointes cardiac arrhythmia. Effects on hERG channel currents have been observed for a number of drugs, including antihistamines, antipsychotics, and many other drugs from nearly all therapeutic areas and chemical classes, and have become a serious safety concern in drug discovery and development. Inhibition of hERG channel currents have also been reported for antibiotics, in particular for macrolides, raising concerns about the cardiac safety of a ...

Consider BeKm-1, for which the “block of hERG channels” value is “high affinity”.
